The values that follow come from patent US8247352B2, “Method of inhibiting ethylene production in plants” (The Regents of the University of California, priority 2005, dated 2012).

Several values for one entry are separate records, joined by “and”; a condition that tells them apart may be missing. Equal values may be shown once.

By Km is commonly meant the concentration of substrate that gives half-maximal velocity.

The target in one test is T1, ACC Oxidase (Solanum lycopersicum, UniProt P05116).
T1 construct: made in house; host or cells: Escherichia coli BL21 (DE3)pLysS
Description: Stoichiometry of O2 consumed to product formed (CO2 or ethylene), extent of uncoupling. The format is biochemical, Lycopersicon esculentum. Particulars: for Ratio O2 consumed to product formed, O2:CO2 / Ratio O2 consumed to product formed, O2:ethylene: saturating substrate, 30 mM ascorbate, ambient O2; for Ratio O2 consumed to product formed, O2:CO2: [14C]-CO2 trapping; for Ratio O2 consumed to product formed, O2:ethylene: ethylene by GC-FID. As to the method:
Oxygen consumption was measured using a YSI model 5300 biological oxygen monitor as described above. Reactions contained D-[1-^14C]-Ala, [carboxyl-^14C]-ACC, α-[1-^14C]-AIB, or [1-^14C]-Gly in trace amounts. […] Reactions (1 mL) were initiated with a pre-incubated mixture of ACCO:Fe(II) in a 2:1 ratio. This was done to minimize free Fe(II) in solution. Final concentrations were typically 10 μM ACCO and 5 μM Fe(II). Reactions were quenched by addition of 3 μL of 0.1 M 3-[2-Pyridyl]-5,6-diphenyl-1,2,4-triazine-4,4′-disulfonic acid (FERROZINE®) and the O2 consumption rate was allowed to stabilize. The reaction (0.8 mL) was removed with a gas-tight syringe and injected into a small vial containing 0.1 mL 10% HCl that was inside a larger vial containing the CO2 trap (see above). The acidified reaction mixture and the CO2 trap were stirred for 2 h, and radioactivity from [^14C]—CO2 was determined as described above. Controls measuring the efficiency of the CO2 trap were done by injecting a known amount of [^14C]—NaHCO3 into the vial containing acid, as above, and measuring the amount of [^14C]—CO2 recovered. Efficiency of trapping was routinely ˜98%.
O2 consumption was measured using an Ocean Optics FOXY fiber optic oxygen sensor, with the fiber optic probe inserted through a syringe into an airtight septum, thus preventing ethylene escape. […] ACCO:Fe(II) (final concentrations 10 μM ACCO and 5 μM Fe(II)) was injected by syringe into a ½ dram vial covered with a septum with no headspace. The reaction was quenched as described above. A 10 mL syringe filled with air was used to transfer the reaction mixture to a 10 mL test tube covered with a septum using a cannula. The test tube was stirred vigorously for at least 4 hours before ethylene analysis. Ethylene was measured by injecting 2 mL of the headspace onto a GC equipped with a RT-Alumina GC column (final sample size was 250 μL). Ethylene was separated using ultrapure helium (grade 5) as the carrier gas at 40° C. detected by flame ionization (FID). The data were collected and the peak area was determined. Calibration for ethylene was done with Scotty IV mix 3 hydrocarbon standard (Scotty Specialty Gases). The ppm of ethylene was converted to nanomoles of ethylene per unit volume using the ideal gas law. Dilution of ethylene during sampling was taken into account in the calculations.
The extent of uncoupling for ACCO with both cyclic and acyclic substrate analogs was determined by comparing the amount of O2 consumed and product, either ethylene or CO2, formed. All reactions were carried out at saturating substrate and ascorbate concentrations to minimize potential O2 reaction in the absence of substrate. […] O2 measurements were quenched during or just as the linear phase of the reaction began to fall off due to either loss of Fe(II) from the enzyme or possible enzyme inactivation. The results distinguish between amounts of uncoupling.
For cyclic substrate analogs and ACC, the stoichiometry was determined by comparing O2 consumption with ethylene formation by GC-FID. […] The stoichiometry of O2 consumed to ethylene produced for ACC was 1.44 and to CO2 produced was 1.18, which is identical to that reported by Dong, et. al (Dong et al., 1992).

Another test deals with T2, ACCO:Fe(II) (Solanum lycopersicum, UniProt P05116).
T2 construct: made in house; host or cells: Escherichia coli BL21 (DE3)pLysS
Description: Ethylene trapping assay: substrate turnover by ACCO:Fe(II), ethylene trapped as dibromoethane, GC-MS. The class given is biochemical, Lycopersicon esculentum. The note with it: for Amount of ethylene formed during the reaction time relative to reaction with ACC: 1 hr incubation with ACCO:Fe(II); for Ethylene produced relative to predicted ethylene during the reaction time course: prediction from kcat. As to the method: For detection of CO2, trace radiolabeled compound was used as appropriate. A small vial containing the reaction mixture minus enzyme was placed along side of another small vial containing the ethylene or CO2 trap. Both vials were placed in a large vial, which was capped with a septum. ACCO:Fe(II) was introduced into the reaction vial with a syringe and both the reaction vial and trap vial were stirred for 1 h. For [^14C]—CO2 trapping, a 1 mL solution of freshly prepared 10 M NaOH was used as the trapping agent. At the end of the reaction, the trap was removed and added to 15 mL scintillation fluid (Hionic-Fluor, Perkin Elmer) and radioactivity determined by scintillation counting. For ethylene, a […] solution of Br2 in CCl4 was used as the trap. A small amount of 2,5-dibromohexane was added to the trap as an internal standard. At the completion of the reaction, a small excess of 2,3-dimethyl-2-butene was added to the trap to quench unreacted Br2, and the trap was analyzed by GC-MS. Dibromoethane purchased from Aldrich was used as a standard.
The ability of ACCO to turnover ACC or the cyclic substrate analogs (MeACC, ACC-NH2, or ACC-OMe) was determined by the formation of ethylene. Each substrate analog or ACC was incubated for 1 hr with ACCO:Fe(II) in a closed reaction vial containing an ethylene trap that would convert ethylene to dibromoethane. At the end of the reaction time, the ethylene trap was quenched and analyzed for dibromoethane by GC-MS. Reactions with BSA/Fe(II) were used as a control for non-enzymatic ethylene formation. The formation of ethylene was detected in the reaction vials of ACC and all the cyclic analogs in the presence of ACCO:Fe(II). No ethylene was detected in any of the BSA/Fe(II) reactions. The amount of ethylene formed during the reaction time from the cyclic analogs was lower than that from the reaction with ACC (MeACC=14%, ACCNH2=13%, ACC-OMe=79%). If the rates of O2 consumption for the reactions with the different substrates are considered, the kcat for ACC-OMe is approximately 75% of that for ACC, which would be consistent with the amount of ethylene produced during the time course of the reaction. […] Although the purity of both MeACC and ACCNH2 by elemental analysis was determined >95%, it is possible that a small amount of contaminating ACC could be responsible for the ethylene formed in these reactions. To determine whether ethylene was being formed from the substrate analog and not from contaminating ACC, reactions with each analog were done in the presence of increasing concentration of ACCO:Fe(II). In the case of a small amount of contamination where the ACC would be quickly depleted during the reaction, the result would be a non-linear dependence of ethylene production with increasing ACCO concentration.

In a further test the target is T3, ACC Oxidase (ACCO, ACO1) (Solanum lycopersicum, UniProt P05116).
T3 construct: made in house; host or cells: Escherichia coli BL21 (DE3)pLysS
The experiment in a line: Initial velocity assays (rate of oxygen consumption) with ACC or substrate analogs. The format is biochemical, Lycopersicon esculentum. Particulars: for Km compared to ACC (in words) / Km increased by factor compared with ACC / Rate of O2 consumption by ACCO compared with ACC (in words): from Table 1; for Km / Vmax: O2 consumption, 25° C., pH 7.2, [Ascorbate] = 30 mM, [O2] = 258 μM, [CO2/bicarbonate] = 20 mM. The procedure: ACCO from Lycopersicon esculentum (ACO1) was produced in Escherichia coli strain BL21 (DE3)pLysS and purified by a two-column purification procedure as previously described (Thrower, J. S. et al., 2001).
Initial velocities were measured by the rate of oxygen consumption at 25° C., pH 7.2, using a YSI model 5300 biological oxygen monitor as previously described (Thrower 2001) with minor modifications. Standard reaction mixture (1 ml) contained 100 mM MOPS, pH 7.2, 20 mM NaHCO3, 100 mM NaCl, 20 mM sodium ascorbate, 0.1 mg/ml BSA, and ACC or substrate analog at various concentrations. Oxygen concentrations were kept at atmospheric concentration and determined using the oxygen monitor that was calibrated with air saturated water (258 μM oxygen at 25° C.). Reactions were initiated with 2 μL ACCO reconstituted with equimolar Fe(NH4)2(SO4)2. Data from initial velocity experiments with varying substrate concentrations were fitted to the Michaelis-Menton equation using the program Kalideograph.
Either cyclic substrate analogs (including inhibitor Me-ACC, ACC-NH2, or ACC-OMe) or acyclic substrate analogs (AIB, D-Ala, or Gly) were used. […] Ascorbate and oxygen concentrations were kept constant at 30 mM and ˜258 μM, respectively.

A further test concerns the target T4, ACCO (Solanum lycopersicum, UniProt P05116).
T4 construct: made in house; host or cells: Escherichia coli BL21 (DE3)pLysS
The experiment in a line: Labeling of ACCO by radiolabeled N-Me-ACC (centrifugal filtration, scintillation counting). The format is binding, Lycopersicon esculentum. The note with it: approximately equal concentrations, standard reaction conditions, quenched with Ferrozine. As to the method:
Radiolabeled N-Me-ACC was incubated with ACCO (approximately equal concentrations) in standard reaction conditions. The reaction was quenched using Ferrozine. The solution was placed in a Millipore 10K NMWL Ultrafree®-MC Centrifugal Filter Unit and centrifuged for 15 min. at 14K rpm. The remaining protein (˜20 μL) was washed with 3×1 mL of either water, reaction buffer, or 0.1% TFA by repeated centrifugation. The protein was collected and radioactivity determined by scintillation counting in 12 mL EcoLite^+ scintillation fluid.

T2 sequence (P05116 whole entry): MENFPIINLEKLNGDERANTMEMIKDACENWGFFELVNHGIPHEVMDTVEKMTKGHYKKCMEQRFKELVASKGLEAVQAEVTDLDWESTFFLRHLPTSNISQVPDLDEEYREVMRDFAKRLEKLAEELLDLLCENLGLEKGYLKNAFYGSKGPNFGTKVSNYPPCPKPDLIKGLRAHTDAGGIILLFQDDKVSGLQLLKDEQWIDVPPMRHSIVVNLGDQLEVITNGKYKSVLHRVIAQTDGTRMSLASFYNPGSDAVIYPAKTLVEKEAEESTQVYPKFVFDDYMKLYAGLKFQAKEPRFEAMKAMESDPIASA
T1 sequence (P05116 whole entry): as above
T3 sequence (P05116 whole entry): as above
T4 sequence (P05116 whole entry): as above

Take `NC1(C(=O)O)CC1` [ACC, 1-aminocyclopropane-1-carboxylic acid, reference compound]: on ACC Oxidase, the Products detected result is recorded as “Ethylene, CO2”; the “Ratio O2 consumed to product formed, O2:CO2” value (shortened to “Ratio O2 consumed … O2:CO2”) was 1.18 and 1.2 and 1.18 ± 0.17; the “Ratio O2 consumed to product formed, O2:ethylene” value (from here on “Ratio O2 consumed … O2:ethylene”) is 1.44 and 1.44 ± 0.22.
In the case of `NC(=O)C1(N)CC1` [ACC-NH2], at ACCO:Fe(II), the “Amount of ethylene formed during the reaction time relative to reaction with ACC” value worked out at 13% and the “Ethylene produced relative to predicted ethylene during the reaction time course” value is listed as “about half the predicted ethylene”. Moreover, on ACC Oxidase, the Products detected result is “Ethylene” and the “Ratio O2 consumed … O2:ethylene” value worked out at 4.40 ± 1.56. For the same compound, the “Km compared to ACC (in words)” value on ACC Oxidase (ACCO, ACO1) is recorded as “not significantly altered”. Further, the “kcat slower than the kcat for ACC” value on ACC Oxidase (ACCO, ACO1) (from rates of O2 consumption) is recorded as about 30%.
Consider `COC(=O)C1(N)CC1` [ACC-OMe], for which the “Amount of ethylene formed during the reaction time relative to reaction with ACC” value on ACCO:Fe(II) is listed as 79%. At ACC Oxidase, the Products detected result is “Ethylene” and the “Ratio O2 consumed … O2:ethylene” value was found to be 1.81 ± 0.72. Also, at ACC Oxidase (ACCO, ACO1), the Michaelis-Menten constant (Km) came to 2.76 ± 0.55 mM, the Vmax was 27.3 ± 1.7 min⁻¹ and the “Km increased by factor compared with ACC” value was about 28 fold. Further, the “kcat as percent of that for ACC” value at ACC Oxidase (ACCO, ACO1) (from rates of O2 consumption) is reported as “approximately 75%”.
Take `CC(C)(N)C(=O)O` [AIB, α-aminoisobutyric acid]: on ACC Oxidase, the Products detected result is given as “Acetone, CO2”; the “Ratio O2 consumed … O2:CO2” value is 1.7 and 1.68 ± 0.12. Also, on ACC Oxidase (ACCO, ACO1), the “Km increased by factor compared with ACC” value was 9.3 fold and the “Rate of O2 consumption by ACCO compared with ACC (in words)” value was “comparable”.
In the case of `C[C@@H](N)C(=O)O` [D-Alanine, D-alanine], at ACC Oxidase, the Products detected entry is recorded as “Acetaldehyde, CO2” and the “Ratio O2 consumed … O2:CO2” value is 3.46 ± 0.51. Besides, on ACC Oxidase (ACCO, ACO1), the “Km increased by factor compared with ACC” value was 44.7 fold and the “Rate of O2 consumption by ACCO compared with ACC (in words)” value is “comparable”.
Turning to `NCC(=O)O` [Glycine, glycine], the Products detected entry on ACC Oxidase is “CO2”.
Regarding `CNC1(C(=O)O)CC1` [N-Me-ACC], on ACCO:Fe(II), the “Amount of ethylene formed during the reaction time relative to reaction with ACC” value is 14% and the “Ethylene produced relative to predicted ethylene during the reaction time course” value is given as “about half the predicted ethylene”. Further, on ACC Oxidase, the Products detected entry is “Ethylene” and the “Ratio O2 consumed … O2:ethylene” value was found to be 3.17 ± 0.86. Further, on ACCO, the “Labeling of ACCO by radiolabeled compound” value is “irreversibly labels ACCO in a short period of time”. On ACC Oxidase (ACCO, ACO1), the Km was determined as 0.107 ± 0.021 mM, the Vmax came to 12.2 ± 0.5 min⁻¹ and the “Km compared to ACC (in words)” value was “not significantly altered”. Besides, at ACC Oxidase (ACCO, ACO1) (from rates of O2 consumption), the “kcat slower than the kcat for ACC” value is about 30%.
